Test results reported in PubChem BioAssay (NCI).
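Grown in 96-well plates, cells were treated for 48 hours with each compound at five concentrations. Insufficient inhibition: endpoint recorded as highest concentration tested. Definition used: TGI = concentration required for complete inhibition of growth.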

Key:
Assay in all cases: growth of human tumour cells (NCI), 48 h
SK-OV-3 ovarian = tested on: SK-OV-3 ovarian
SNB-75 CNS = tested on: SNB-75 CNS
NCI-H460 lung = tested on: NCI-H460 lung
U251 CNS = tested on: U251 CNS
HCT-15 colon = tested on: HCT-15 colon
LOX IMVI melanoma = tested on: LOX IMVI melanoma
KM12 colon = tested on: KM12 colon
SF-295 CNS = tested on: SF-295 CNS
BT-549 breast = tested on: BT-549 breast
SW-620 colon = tested on: SW-620 colon
A498 renal = tested on: A498 renal
K-562 leukemia = tested on: K-562 leukemia
NCI-H226 lung = tested on: NCI-H226 lung
CAKI-1 renal = tested on: CAKI-1 renal
COLO 205 colon = tested on: COLO 205 colon
SN12C renal = tested on: SN12C renal
NCI/ADR-RES ovarian = tested on: NCI/ADR-RES ovarian
PC-3 prostate = tested on: PC-3 prostate
UACC-257 melanoma = tested on: UACC-257 melanoma
HOP-62 NSCLC = tested on: HOP-62 NSCLC
HCT-116 colon = tested on: HCT-116 colon
EKVX NSCLC = tested on: EKVX NSCLC
SF-539 CNS = tested on: SF-539 CNS
MDA-N = tested on: MDA-N
MALME-3M melanoma = tested on: MALME-3M melanoma
HCC-2998 colon = tested on: HCC-2998 colon
SK-MEL-28 melanoma = tested on: SK-MEL-28 melanoma
786-0 renal = tested on: 786-0 renal
UACC-62 melanoma = tested on: UACC-62 melanoma
OVCAR-3 ovarian = tested on: OVCAR-3 ovarian
SK-MEL-5 melanoma = tested on: SK-MEL-5 melanoma
TK-10 renal = tested on: TK-10 renal
IGROV1 ovarian = tested on: IGROV1 ovarian
SR leukemia = tested on: SR leukemia
OVCAR-4 ovarian = tested on: OVCAR-4 ovarian
NCI-H23 lung = tested on: NCI-H23 lung
MCF7 breast = tested on: MCF7 breast
ACHN renal = tested on: ACHN renal
HOP-92 NSCLC = tested on: HOP-92 NSCLC
SNB-19 CNS = tested on: SNB-19 CNS
MDA-MB-231 breast = tested on: MDA-MB-231 breast
M14 melanoma = tested on: M14 melanoma
A549 NSCLC = tested on: A549 NSCLC
UO-31 renal = tested on: UO-31 renal
OVCAR-5 ovarian = tested on: OVCAR-5 ovarian
CCRF-CEM leukemia = tested on: CCRF-CEM leukemia
SK-MEL-2 melanoma = tested on: SK-MEL-2 melanoma
HT29 colon = tested on: HT29 colon
HS 578T breast = tested on: HS 578T breast
MOLT-4 leukemia = tested on: MOLT-4 leukemia
HL-60(TB) leukemia = tested on: HL-60(TB) leukemia
RXF 393 renal = tested on: RXF 393 renal
OVCAR-8 ovarian = tested on: OVCAR-8 ovarian
DU-145 prostate = tested on: DU-145 prostate
SF-268 CNS = tested on: SF-268 CNS
T-47D breast = tested on: T-47D breast
MDA-MB-435 = tested on: MDA-MB-435
NCI-H522 lung = tested on: NCI-H522 lung

Work on `COC(=O)/C=C(\C)CC(O)/C=C(\C)CCC=C(C)C` (centres undefined) yielded a TGI (SK-OV-3 ovarian) of over 100 µM, a TGI (SNB-75 CNS) of 57.1 µM and a TGI (NCI-H460 lung) of over 100 µM. The TGI (U251 CNS) was over 100 µM, the TGI (HCT-15 colon) was over 100 µM and the TGI (LOX IMVI melanoma) was over 100 µM. The TGI (KM12 colon) was over 100 µM, the TGI (SF-295 CNS) was over 100 µM and the TGI (BT-549 breast) was over 100 µM. The TGI (SW-620 colon) was over 100 µM, the TGI (A498 renal) was over 100 µM and the TGI (K-562 leukemia) was over 100 µM. The TGI (NCI-H226 lung) was over 100 µM, the TGI (CAKI-1 renal) was over 100 µM and the TGI (COLO 205 colon) was over 100 µM. For the same compound, the TGI (SN12C renal) was over 100 µM, the TGI (NCI/ADR-RES ovarian) was 67.9 µM and the TGI (PC-3 prostate) was over 100 µM. For the same compound, the TGI (UACC-257 melanoma) was over 100 µM, the TGI (HOP-62 NSCLC) was over 100 µM and the TGI (HCT-116 colon) was over 100 µM. For the same compound, the TGI (EKVX NSCLC) was over 100 µM, the TGI (SF-539 CNS) was over 100 µM and the TGI (MDA-N) was over 100 µM. The TGI (MALME-3M melanoma) was over 100 µM, the TGI (HCC-2998 colon) was over 100 µM and the TGI (SK-MEL-28 melanoma) was over 100 µM. It also gave a TGI (786-0 renal) of over 100 µM, a TGI (UACC-62 melanoma) of over 100 µM and a TGI (OVCAR-3 ovarian) of 87.7 µM. The TGI (SK-MEL-5 melanoma) was 42.7 µM, the TGI (TK-10 renal) was over 100 µM and the TGI (IGROV1 ovarian) was over 100 µM. The TGI (SR leukemia) was 68.2 µM, the TGI (OVCAR-4 ovarian) was over 100 µM and the TGI (NCI-H23 lung) was 74.9 µM. The TGI (MCF7 breast) was over 100 µM, the TGI (ACHN renal) was over 100 µM and the TGI (HOP-92 NSCLC) was over 100 µM. The TGI (SNB-19 CNS) was over 100 µM, the TGI (MDA-MB-231 breast) was over 100 µM and the TGI (M14 melanoma) was over 100 µM. It also gave a TGI (A549 NSCLC) of over 100 µM, a TGI (UO-31 renal) of over 100 µM and a TGI (OVCAR-5 ovarian) of over 100 µM. For the same compound, the TGI (CCRF-CEM leukemia) was 94.1 µM, the TGI (SK-MEL-2 melanoma) was 73.7 µM and the TGI (HT29 colon) was 59.2 µM. The TGI (HS 578T breast) was over 100 µM, the TGI (MOLT-4 leukemia) was 55.3 µM and the TGI (HL-60(TB) leukemia) was 46.2 µM. It also gave a TGI (RXF 393 renal) of over 100 µM and a TGI (OVCAR-8 ovarian) of over 100 µM.
`Oc1[nH]c2ccccc2c1N=NC(=S)Nc1cccc(Cl)c1` was tested, and the TGI (SK-OV-3 ovarian) was 61.1 µM, the TGI (NCI-H460 lung) was 65.2 µM and the TGI (U251 CNS) was 89.1 µM. The TGI (HCT-15 colon) was over 100 µM, the TGI (LOX IMVI melanoma) was 33.4 µM and the TGI (KM12 colon) was 58.8 µM. It also gave a TGI (SF-295 CNS) of 29.2 µM, a TGI (SW-620 colon) of 26.8 µM and a TGI (DU-145 prostate) of over 100 µM. The TGI (A498 renal) was 24.7 µM, the TGI (K-562 leukemia) was 50 µM and the TGI (NCI-H226 lung) was 55.2 µM. It also gave a TGI (CAKI-1 renal) of 44.9 µM, a TGI (COLO 205 colon) of over 100 µM and a TGI (SN12C renal) of over 100 µM. For the same compound, the TGI (NCI/ADR-RES ovarian) was 8 µM, the TGI (PC-3 prostate) was over 100 µM and the TGI (UACC-257 melanoma) was 75.5 µM. It also gave a TGI (HOP-62 NSCLC) of 42.5 µM, a TGI (HCT-116 colon) of 17.3 µM and a TGI (EKVX NSCLC) of over 100 µM. The TGI (SF-539 CNS) was 22.4 µM, the TGI (MDA-N) was over 100 µM and the TGI (MALME-3M melanoma) was 52.3 µM. It also gave a TGI (HCC-2998 colon) of over 100 µM, a TGI (SK-MEL-28 melanoma) of over 100 µM and a TGI (786-0 renal) of 27.6 µM. For the same compound, the TGI (UACC-62 melanoma) was 29 µM, the TGI (OVCAR-3 ovarian) was over 100 µM and the TGI (SK-MEL-5 melanoma) was 18.8 µM. It also gave a TGI (TK-10 renal) of 84.8 µM, a TGI (IGROV1 ovarian) of 89 µM and a TGI (SF-268 CNS) of over 100 µM. The TGI (SR leukemia) was 9.71 µM, the TGI (OVCAR-4 ovarian) was 59.4 µM and the TGI (T-47D breast) was over 100 µM. The TGI (NCI-H23 lung) was 52.3 µM, the TGI (MCF7 breast) was over 100 µM and the TGI (ACHN renal) was 28.8 µM. For the same compound, the TGI (MDA-MB-435) was 99.4 µM, the TGI (HOP-92 NSCLC) was 70.3 µM and the TGI (SNB-19 CNS) was over 100 µM. For the same compound, the TGI (MDA-MB-231 breast) was 52.3 µM, the TGI (M14 melanoma) was 24.7 µM and the TGI (A549 NSCLC) was 35.6 µM. It also gave a TGI (UO-31 renal) of over 100 µM, a TGI (OVCAR-5 ovarian) of over 100 µM and a TGI (NCI-H522 lung) of 77.6 µM. The TGI (CCRF-CEM leukemia) was 31 µM, the TGI (SK-MEL-2 melanoma) was 89.6 µM and the TGI (HT29 colon) was 28.4 µM. For the same compound, the TGI (HS 578T breast) was over 100 µM, the TGI (MOLT-4 leukemia) was 10.8 µM and the TGI (HL-60(TB) leukemia) was 49.6 µM. The TGI (RXF 393 renal) was 48.7 µM and the TGI (OVCAR-8 ovarian) was 35.7 µM.
